Data as given in ChEMBL document CHEMBL5308504, “Tm Shift (DSF) assay results for EUbOPEN Chemogenomics Library” (2023).
Several values for one entry are separate records, joined by “and”; a condition that tells them apart may be missing. Equal values may be shown once.

Assays:
Peregrin (Homo sapiens) = target: T1, Peregrin (Homo sapiens) (UniProt P55201); settings: Compound concentration 20.0 uM, Protein concentration 2.0 uM, Result type QC Liability
T1 sequence (whole entry): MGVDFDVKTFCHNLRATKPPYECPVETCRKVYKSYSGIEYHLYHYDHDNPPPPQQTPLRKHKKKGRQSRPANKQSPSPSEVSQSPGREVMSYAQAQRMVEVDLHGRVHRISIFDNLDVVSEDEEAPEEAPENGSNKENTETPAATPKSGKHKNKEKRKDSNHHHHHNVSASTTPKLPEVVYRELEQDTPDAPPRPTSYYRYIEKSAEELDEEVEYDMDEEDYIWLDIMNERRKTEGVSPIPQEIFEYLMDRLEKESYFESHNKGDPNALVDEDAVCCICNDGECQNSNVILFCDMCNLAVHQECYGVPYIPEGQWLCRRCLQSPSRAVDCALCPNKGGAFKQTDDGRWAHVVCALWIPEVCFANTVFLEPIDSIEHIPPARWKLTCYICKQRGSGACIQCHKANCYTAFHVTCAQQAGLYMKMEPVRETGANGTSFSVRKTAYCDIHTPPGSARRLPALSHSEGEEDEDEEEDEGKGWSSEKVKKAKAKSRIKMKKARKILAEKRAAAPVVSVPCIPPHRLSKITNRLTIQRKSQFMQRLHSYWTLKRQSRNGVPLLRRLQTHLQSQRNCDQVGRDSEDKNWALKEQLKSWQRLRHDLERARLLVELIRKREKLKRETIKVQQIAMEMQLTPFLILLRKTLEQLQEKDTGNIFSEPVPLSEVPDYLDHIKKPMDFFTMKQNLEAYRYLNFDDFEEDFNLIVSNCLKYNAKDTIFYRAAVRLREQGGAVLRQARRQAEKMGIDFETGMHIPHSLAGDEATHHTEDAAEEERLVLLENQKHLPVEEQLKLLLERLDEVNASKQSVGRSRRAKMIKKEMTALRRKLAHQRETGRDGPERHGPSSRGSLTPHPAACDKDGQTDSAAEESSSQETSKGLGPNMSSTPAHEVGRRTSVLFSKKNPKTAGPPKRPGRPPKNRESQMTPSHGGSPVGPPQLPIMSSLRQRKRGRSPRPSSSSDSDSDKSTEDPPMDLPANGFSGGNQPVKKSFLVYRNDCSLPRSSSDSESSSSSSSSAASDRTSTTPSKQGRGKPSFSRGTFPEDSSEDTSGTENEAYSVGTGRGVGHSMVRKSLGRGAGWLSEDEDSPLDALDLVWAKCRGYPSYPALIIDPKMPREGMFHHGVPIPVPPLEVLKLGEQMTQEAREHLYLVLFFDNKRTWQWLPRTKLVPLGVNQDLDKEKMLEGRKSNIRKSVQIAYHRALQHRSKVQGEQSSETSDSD

[1] = target: Fibroblast growth factor receptor 3 (Homo sapiens) (UniProt P22607); settings: Compound concentration 20.0 uM, Protein concentration 2.0 uM, Result type QC Liability
Chain of Fibroblast growth factor receptor 3 (Homo sapiens) (P22607 23-806 limits assumed): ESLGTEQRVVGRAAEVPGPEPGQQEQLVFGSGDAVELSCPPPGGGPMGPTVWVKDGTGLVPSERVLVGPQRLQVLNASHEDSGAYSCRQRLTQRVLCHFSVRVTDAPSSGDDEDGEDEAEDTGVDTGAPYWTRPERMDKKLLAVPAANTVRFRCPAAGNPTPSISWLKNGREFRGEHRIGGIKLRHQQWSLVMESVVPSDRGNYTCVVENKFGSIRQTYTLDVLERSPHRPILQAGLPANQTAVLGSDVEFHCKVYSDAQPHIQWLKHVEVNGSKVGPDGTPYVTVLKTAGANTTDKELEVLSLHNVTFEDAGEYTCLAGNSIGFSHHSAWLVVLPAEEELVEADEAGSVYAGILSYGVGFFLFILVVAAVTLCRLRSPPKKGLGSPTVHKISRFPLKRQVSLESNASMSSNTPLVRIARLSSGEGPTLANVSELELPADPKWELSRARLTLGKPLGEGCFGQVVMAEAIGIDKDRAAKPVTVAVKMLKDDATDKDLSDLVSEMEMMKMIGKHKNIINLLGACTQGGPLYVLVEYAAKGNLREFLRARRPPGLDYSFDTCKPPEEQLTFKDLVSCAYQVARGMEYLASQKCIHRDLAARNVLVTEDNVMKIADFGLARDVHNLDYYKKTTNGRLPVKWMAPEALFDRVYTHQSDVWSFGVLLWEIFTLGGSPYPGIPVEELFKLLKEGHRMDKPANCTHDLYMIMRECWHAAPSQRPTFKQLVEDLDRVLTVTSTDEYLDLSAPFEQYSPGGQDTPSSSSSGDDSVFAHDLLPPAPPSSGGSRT
Description: Thermal Shift Assay. Domain: start/stop: P449-E759

Compound | ΔTm (Peregrin (Homo sapiens)) | ΔTm [1]
N=C(N)NCCC[C@H](NC(=O)CC1(CC(=O)N2CCN(C3c4ccccc4NC(=O)c4ccccc43)CC2)CCCC1)C(=O)NCCn1c(=O)n(-c2ccccc2)n(-c2ccccc2)c1=O (stereo not given in full) | -2.29 °C | -5.62 °C
COP(=O)(CCC(N)C(=O)O)Oc1cccc(CC(=O)O)c1 (stereo not given) | -1.49 °C | 0.51 °C
COc1c(NC(=O)c2cc3cccc(Oc4ccnc(C(=O)N5CCN(C)CC5)c4)c3n2C)cc(C(C)(C)C)cc1NS(C)(=O)=O | -2.38 °C | 1.12 °C
COCc1nc2cnc3cc(-c4c(C)noc4C)c(OC[C@H]4CCNC4)cc3c2n1[C@H](C)c1ccccc1 | -1.65 °C | 0.6 °C
C[C@H](NC(=O)c1cnc2n1[C@](C)(Cc1ccc(C#N)cc1)C(=O)N2c1cc(Cl)c(F)c(Cl)c1)C(=O)NC1(c2ccccn2)CC1 | -0.27 °C | 0.96 °C
COc1ccc(C(F)(F)F)cc1NC(=O)Nc1ccc(Oc2cc(C)nc(N)n2)c2ccccc12 | 1.59 °C | 2.41 °C
CNc1ncc2cc(-c3ccc(-c4cccc(C)n4)cc3Cl)c(=O)n(C[C@H]3OC[C@H](N)CO3)c2n1 | -2.41 °C | 1.85 °C
Cc1cc(Cl)ccc1S(=O)(=O)NC[C@H]1C2CCC(CC2)[C@@H]1/C=C\CCCC(=O)O | -2.88 °C | 0.12 °C
CC1(C)C[C@@H]1C(=O)N/C(=C\CCCCSC[C@H](N)C(=O)O)C(=O)O | -2.3 °C | 0.5 °C
N#C/C(=C\c1ccc(O)c(O)c1)C(=O)OCCc1cccs1 | -0.27 °C | 1.51 °C
O=C(N[C@H]1CCC[C@H](CO)C1)C1CCN(c2nc3cc(Cl)c(-c4ccc(Cl)cc4)cc3o2)CC1 | -0.52 °C | -8.62 °C
CN(C)c1ncc2cc(-c3ccc(-c4ncccc4F)cc3Cl)c(=O)n(C[C@H]3OC[C@H](N)CO3)c2n1 | -1.55 °C | -0.14 °C
CC1(C)C(=O)N([C@H]2CCc3c(O)cccc32)c2nc(Nc3cccc(CN4CCCC4)c3)ncc21 | -1.23 °C | 9.18 °C
O=C(NCCN1CCOCC1)c1ccc2nn(CCOc3ccc(Cl)cc3)cc2c1 | -2.21 °C | 1.58 °C
O=C(NCc1ccc(F)cc1)C1CCN(S(=O)(=O)c2cc(Cl)cc(Cl)c2)CC1 | -1.81 °C | 0.9 °C
CN(C)C/C=C/C(=O)Nc1cccc(S(=O)(=O)N2CCC(NC(=O)c3n[nH]cc3NC(=O)c3c(Cl)cc(Cl)cc3Cl)CC2)c1 | -0.81 °C | 6.8 °C
CC(=O)c1c(C)c2cnc(Nc3ccc(N4CCNCC4)cn3)nc2n(C2CCCC2)c1=O | -1.97 °C and -1.31 °C | 0.56 °C and 0.64 °C
Nc1ncc2c(n1)-c1c([nH]c3ccc(C4CC4)cc13)CCCC2 | -1.74 °C | 0.81 °C
N#CN1CC[C@H](C(=O)Nc2nc3c(s2)CN(C(=O)CN=[N+]=[N-])CC3)C1 | -1.51 °C | 1.09 °C
CN[C@@H](C)C(=O)N[C@H](C(=O)N1CCC[C@H]1C(=O)N[C@@H]1CCCc2ccccc21)C1CCCCC1 | -1.87 °C | 0.75 °C

Compound | ΔTm (Peregrin (Homo sapiens)) | ΔTm [1]
Cc1ccc(-n2nc(C(C)(C)C)cc2NC(=O)Nc2ccccc2F)cc1 | -0.3 °C | 2.28 °C
Cn1ncc(NC(=O)c2nc(-c3c(F)cccc3F)sc2N)c1N1CC[C@@H](N)[C@H](F)CC1 | -0.66 °C | 0.81 °C
CCOCCn1cc(C(=O)Nc2ccc(-n3nc(-c4cccnc4)cc3C(F)(F)F)cn2)ccc1=O | -3.33 °C | 0.41 °C
CC(C)(C)C(=O)NCc1ccc(Cl)c(C(=O)Nc2ncc[nH]2)c1 | -2.86 °C | 0.47 °C
CC[C@H](CC(=O)O)n1c(=O)c2ncccc2n(Cc2cn(C)c3cc(C)cc(C)c23)c1=O | -2.28 °C and -0.95 °C | 0.98 °C and 0.62 °C
Cn1cnc(Cn2ccc3ccc(CNCc4[nH]c5ccccc5c4[C@H]4NC(=O)c5ccc(O)cc54)cc32)c1 | -2.61 °C | 0.57 °C
C[C@@H](CO)CCC[C@@H](C)[C@H]1CC[C@H]2[C@@H]3CC=C4C[C@@H](O)CC[C@]4(C)[C@H]3CC[C@]12C | -1.97 °C | 0.9 °C
N[C@H](C(=O)O)[C@@H]1CC(Cl)=NO1 | -1.19 °C | 0.45 °C
CNC(=O)c1c(F)cccc1Nc1nc(Nc2cc3c(cc2OC)CCN3C(=O)CN(C)C)nc2[nH]ccc12 | -2.03 °C | 0.2 °C
Cc1cc([N+](=O)[O-])c(NS(=O)(=O)c2cccc(C(=O)O)c2)cc1-c1cccnc1 | 0.37 °C | 0.67 °C
Cc1nn(-c2ccccc2)c(Nc2ccccc2C(=O)O)c1-c1cc2nccnc2c(F)c1F | -2.93 °C | 1.95 °C
CN(C)[C@H]1C[C@H](n2cnc(-c3ccc(F)cn3)c2-c2ccnc3[nH]ccc23)C1 | -0.35 °C | 0.61 °C
CNC(=O)c1cc(C(=O)N[C@H]2[C@@H]3COC[C@@H]32)cc2c1O[C@H](CF)[C@H]2c1ccccc1 | -0.69 °C | 0.65 °C
CC(C)NC(=O)[C@H]1CCC[C@H]1Nc1nc(Nc2ccc(CN(C)C)cc2)ncc1Br | -1.84 °C | 7.35 °C
C[C@@H]1CCNC(=O)c2cc3ccc(C(=O)Nc4nc5ccccc5n4CCCN(C)C)cc3n21 | -2.35 °C | 2.76 °C
Cc1cnc(-c2cnc(NCCNc3ccc(C#N)cn3)nc2-c2ccc(Cl)cc2Cl)[nH]1 | -2.19 °C | 1.41 °C
COc1ccc(-n2nc(C(F)(F)F)cc2-c2ccc(Cl)cc2)cc1 | -3.19 °C | 0.81 °C
O=C1CCCN1CCNc1nc(Nc2ccc(Cl)c(Cl)c2)ncc1C(F)(F)F | -1.78 °C | 4.63 °C
N=C(N)Nc1cc(C2CCNCC2)cc(C(F)(F)F)c1 | -2.37 °C | 0.42 °C
CN1CCc2cc(Nc3ncc(C(F)(F)F)c(NCc4cc[nH]n4)n3)ccc2C1 | -1.01 °C | 8.22 °C

Compound | ΔTm (Peregrin (Homo sapiens)) | ΔTm [1]
Nc1ncnc2c1ccn2[C@@H]1O[C@H]([C@@H](O)c2ccccc2)[C@@H](O)[C@H]1O | -1.55 °C | 0.72 °C
O=C(O)Cc1cc(I)c(Oc2ccc(O)c(I)c2)c(I)c1 | -2.62 °C | -0.28 °C
Cc1ccc(-n2nc(C(C)(C)C)cc2NC(=O)Nc2ccc(OCCN3CCOCC3)c3ccccc23)cc1 | -3.09 °C and -0.42 °C | 3.18 °C and 3.23 °C
COCc1c(-c2cc3cc(C)cc(OC)c3s2)c2c(N)ncnn2c1CN[C@@H]1CCNC1=O | -2.51 °C | 6.99 °C
COc1ccccc1N1CCN(c2ncnc3c2cnn3-c2ccccc2)CC1 | -1.23 °C | 0.51 °C
CC(C)C[C@H](NC(=O)[C@@H](O)[C@H](N)Cc1ccccc1)C(=O)O | -2.93 °C | 0.78 °C
CC(F)(F)CN1C(=O)c2[nH]nc(-c3cccc4[nH]c(=O)oc34)c2C1c1ccc(Oc2cc(C(F)(F)F)cc(C(F)(F)F)c2)cc1 (stereo not given) | -0.66 °C | -5.32 °C
CC(C)(C)NC(=O)c1cncn1C1CCN(c2ccc(-c3nnc(C(F)(F)F)o3)cn2)CC1 | -2.22 °C | 0.91 °C
CC#CC(=O)N1CCN(c2nc(-c3ccc(Oc4ccccc4)cc3)c(C(N)=O)s2)CC1 | -1.23 °C | -1.02 °C
CC1(C)Oc2ncnc(N)c2N=C1c1ccc([C@H]2CC[C@H](CC(=O)O)CC2)cc1 | -2.72 °C | 0.43 °C
CC(C)C(=O)N[C@@H]1CCN(C(=O)Nc2nc3c(s2)-c2nc(-c4ccccc4Cl)ncc2CC3)C1 | -1.39 °C | 3.87 °C
CC(C=CC1=C(C)CCCC1(C)C)=CC=CC(C)=CC(=O)O | -2.28 °C | 0.68 °C
CCc1ccccc1C(=O)Nc1n[nH]c2c(C)c(F)c(C3C(C#N)=C(C)N(C)C(C)=C3C#N)cc12 | -1.74 °C | 2.59 °C
COc1cc2nc(C)nc(N[C@H](C)c3cc(N)cc(C(F)(F)F)c3)c2cc1O[C@H]1CCOC1 | -3.07 °C | 0.66 °C
COc1cc2nc(-c3cc(F)ccc3O)nc(N[C@@H]3CNC[C@H]3C(C)(C)O)c2cc1OC | 0.34 °C | 1.8 °C
Cc1nccc(COC(=O)N2C[C@@H]3[C@@H](CNC(=O)c4ccc5[nH]nnc5c4)[C@@H]3C2)n1 | -2.37 °C | 0.43 °C
CC1CNCCc2c1nc1ccnn1c2N1CC(C(=O)N2CCC(C)(C)C2)C1 (stereo not given) | -1.64 °C | 0.56 °C
Nc1c(CC(=O)O)cccc1C(=O)c1ccc(Br)cc1 | -2.36 °C | 0.57 °C
COc1ccc(S(=O)(=O)N2CCOCC2)cc1Nc1ccc2c(n1)N(C1CCOCC1)[C@H](C)C(=O)N2C | 0.21 °C | 0.08 °C
COc1cccc(Cn2cc(C(=O)Nc3ccc(C)c(S(=O)(=O)N4CCOCC4)c3)c(-c3ccc(C)cc3)n2)c1 | 4.54 °C | 3.17 °C
